From US20060240026A1, “Preventing and/or remedy hematopoietic tumor” (GREEN PEPTIDE CO., LTD., priority 2003, published 2006)
Entries after “also recorded” stand apart in the source; their conditions may differ. Ends that are not written are not given here.

Experiments:
[1] = Side effects and skin test, chronic lymphocytic leukemia patient; assay type: in vivo, human
Procedure: Three kinds of emulsions each of which contains each of these peptides respectively and an adjuvant were prepared according to the method described in Example 1, and vaccinated to the patient by injecting subcutaneously at different sites of the patient's lateral thigh. […] The skin test was conducted by injecting intradermally the solution of 50 μg of each peptide in physiological saline and determining immediate-type or delayed-type hypersensitivity reaction at 20 minutes or 24 hours after the injection.
Therefore, SART-293 (SEQ ID NO: 5) and SART-3109 (SEQ ID NO: 8) were used for vaccination. […] In the clinical trials of peptide vaccines in epithelial cancer patients, there has been observed a correlation between the survival rate of patients and the increased humoral immune responses against the peptides used in the vaccines. From these facts, it was believed that SART-293 (SEQ ID NO: 5) and SART-3109 (SEQ ID NO: 8) were effective in this patient.
Thus, there were very few side effects observed.

[2] = system: PBMCs of HLA-A24+ patients with hematologic malignancies; assay: IFN-γ production by peptide-stimulated patient PBMCs in response to peptide-pulsed C1R-A24 cells; assay type: cell-based, human; set-up: peptide-specific IFN-γ production: unit not given here; settings: for peptide-specific IFN-γ production: 10 μM peptide in vitro, vs peptide-pulsed C1R-A24, HIV-peptide background subtracted
Procedure: The induction of peptide-specific cytotoxic T lymphocytes from PBMCs of a patient with hematologic malignancy was conducted as reported preveously (Non-Patent Reference 5). The following peptides were used to induce cytotoxic T lymphocytes: p56^lck protein-derived peptides (Lck208 (SEQ ID NO: 1), Lck488 (SEQ ID NO: 2) and Lck486 (SEQ ID NO: 3)); SART-1-derived peptide (SART-1690 (SEQ ID NO: 4)); SART-2-derived peptides (SART-293 (SEQ ID NO: 5), SART-2161 (SEQ ID NO: 6) and SART-2899 (SEQ ID NO: 7)); SART-3-derived peptides (SART-3109 (SEQ ID NO: 8) and SART-3315 (SEQ ID NO: 9)); and ART-1-derived peptide (ART-1170 (SEQ ID NO: 10)). All of these peptides are the epithelial cancer-related antigen-derived peptides and have the ability to induce cytotoxic T lymphocytes from PBMCs of an epithelial cancer patient in an HLA-A24 dependent manner (Non-Patent References 3-6 and 12). A human immunodeficiency virus (HIV)-derived peptide (SEQ ID NO: 11) and Epstein-Barr virus (EBV)-derived peptide (SEQ ID NO: 12) were used respectively as a negative control peptide and positive control peptide both of which have an HLA-A24-binding motif. […] PBMCs were prepared from peripheral blood that was collected from a patient with hematologic malignancy using Ficoll-Conray density-gradient centrifugation. The expression of HLA-A24 molecules on PBMCs was determined using flow cytometry by a well known method (Non-Patent Reference 5). The induction of cytotoxic T lymphocytes from PBMCs was conducted as follows. […] The culture medium consisted of 45% RPMI-1640, 45% AIM-V (Invitrogen), 10% FCS, 100 U/ml of interleukin-2 (IL-2), and 0.1 mM MEM non-essential amino acid solution (Invitrogen). […] The background IFN-γ production in response to the HIV-derived peptide (SEQ ID NO: 11) was subtracted from the values given in the data. When the mean value of the IFN-γ produced from the peptide-stimulated PBMCs in response to a corresponding peptide was higher than that produced in response to the HIV peptide (SEQ ID NO: 11), it was judged that the precursor of a peptide-specific cytotoxic T lymphocyte was present in the PBMCs and that the peptide-specific cytotoxic T lymphocytes were induced by the peptide. PBMCs of ten cases of HLA-A24^+ patients with hematologic malignancies (two cases with CLL, one case with MCL, one case with NHL, one case with B-ALL, one case with MM, one case with MDS, two cases with ATL, and one case with T-ALL) were tested for the induction of cytotoxic T lymphocytes using peptides that were derived from p56^lck protein, SART-1, SART-2, SART-3 and ART-1. The peptides used were the peptides that induced peptide-specific tumor-reactive cytotoxic T lymphocytes from PBMCs of an HLA-A24^+ epithelial cancer patient, which are currently on clinical trials for use as vaccines for epithelial cancer patients. The PBMCs were stimulated with the peptide in vitro to measure the peptide-specific IFN-γ production.

[3] = system: C1R-A24 cells pulsed with the peptides; assay: IFN-γ production of PBMCs of vaccinated chronic lymphocytic leukemia patient; assay type: in vivo, human; settings: CLL patient No. 1, with the increasing number of peptide vaccination
Excerpt: The patient (patient No. 1 in table 2) subjected to clinical trials was a HLA-A24^+ […] suffering from chronic lymphocytic leukemia with a stage A by Bernet's classification.
(§1) Two kinds of emulsions prepared using these peptides according to the methods described in Example 5 were vaccinated to the patient by injecting subcutaneously at different sites of the patient's lateral thigh.
After each vaccination, PBMCs derived from the patient were studied for the peptide-specific cytotoxic T lymphocyte induction by measuring the amount of IFN-γ production as an indicator against C1R-A24 cells pulsed with the peptides used (see Example 3).

[4] = system: C1R-A24 cells pulsed with the peptides; assay: Cytotoxic activity of PBMCs of vaccinated chronic lymphocytic leukemia patient (51Cr-release); assay type: in vivo, human; settings: CLL patient No. 1, PBMCs after vaccination, 51Cr-release test
Excerpt: as §1

[5] = system: HLA-A24+ hematologic malignant cell line (PEER, REH); assay: 51Cr-release test of peptide-stimulated PBMCs against HLA-A24+ malignant line; assay type: cell-based, human; settings: peptide-stimulated patient PBMCs further cultured with IL-2; effector/target 3, 10 or 30; 6 h
Procedure: (§2) Then, the cytotoxicity against hematologic malignant cell lines was examined by a standard ^51Cr-release test (Non-Patent Reference 5). Specifically, the PBMCs obtained were used as an effector to mix with ^51Cr-labelled target cells (hereinafter referred to as targets) at an effector/target rate of 3, 10 or 30, and then incubated for six hours, followed by measuring the radioactivity of ^51Cr released in the supernatants. The results obtained were indicated as % lysis which was calculated by regarding a radioactivity as 100% when the targets were completely dissolved. The following targets were used: PEER, an HLA-A24^+ hematologic malignant cell line; HPB-MLT, an HLA-A24^− hematologic malignant cell line; and an HLA-A24^+ PHA blastoid T-cell.

[6] = system: HLA-A24- hematologic malignant cell line (HPB-MLT); assay: 51Cr-release test of peptide-stimulated PBMCs against HLA-A24- malignant line; assay type: cell-based, human; settings: peptide-stimulated patient PBMCs further cultured with IL-2; effector/target 3, 10 or 30; 6 h
Procedure: as §2

[7] = system: HLA-A24+ PHA blastoid T-cell; assay: 51Cr-release test of peptide-stimulated PBMCs against normal cells; assay type: cell-based, human; settings: peptide-stimulated patient PBMCs further cultured with IL-2; effector/target 3, 10 or 30; 6 h
Procedure: as §2

## EYCLKFTKL [ART-1170]
[1]; CLL patient No. 1, before vaccination
  immediate hypersensitivity reaction in skin test: caused immediate hypersensitivity reaction

## SART-293: SART-2-derived peptide; epithelial cancer-related antigen peptide (DYSARWNEI; Partial peptide of SART-2)
[2]; PBMCs of patient #1 CLL
  peptide-specific IFN-γ production: 0
[2]; PBMCs of patient #2 CLL
  peptide-specific IFN-γ production: 440
[2]; PBMCs of patient #3 MCL
  peptide-specific IFN-γ production: 9
[2]; PBMCs of patient #4 NHL
  peptide-specific IFN-γ production: 63
[2]; PBMCs of patient #5 B-ALL
  peptide-specific IFN-γ production: 20
[2]; PBMCs of patient #6 MM
  peptide-specific IFN-γ production: 28
[2]; PBMCs of patient #7 MDS
  peptide-specific IFN-γ production: 0
[2]; PBMCs of patient #8 ATL
  peptide-specific IFN-γ production: 0
[2]; PBMCs of patient #9 ATL
  peptide-specific IFN-γ production: 354
[2]; PBMCs of patient #10 T-ALL
  peptide-specific IFN-γ production: 192
[2]; ten HLA-A24+ patients with hematologic malignancies
  Responding case/total (enhancement of IFN-γ production): 3/10
[3]
  IFN-γ production in response to C1R-A24 cells pulsed with the peptide: enhanced production of interferon (IFN)-γ
[4]
  cytotoxic activity against peptide-pulsed C1R-A24 cells versus cells pulsed with HIV-derived peptide: higher cytotoxic activity

## VYDYNCHVDL [SART-3109]
[1]; CLL patient No. 1, after the third vaccination
  delayed-type hypersensitivity reaction: delayed-type hypersensitivity reaction was observed

## TFDYLRSVL [Lck486]
[5]
  cytotoxic activity (% lysis) against HLA-A24+ hematologic malignant line: significant cytotoxic activity; also recorded: exhibited cytotoxic activity
[6]
  cytotoxic activity (% lysis) against HLA-A24- hematologic malignant line: did not show cytotoxic activity; also recorded: did not exhibit cytotoxic activity
[7]
  cytotoxic activity (% lysis) against HLA-A24+ PHA blastoid T-cells: did not show cytotoxic activity; also recorded: did not exhibit cytotoxic activity
